From article PMC12820960, “Lactucopicrin: A Sesquiterpene Lactone with Anti-Inflammatory Activity Modulates the Crosstalk between NF-kB and AHR Pathways” (Journal of Medicinal Chemistry, 2025)

Target: T1, Aryl Hydrocarbon Receptor (AHR) (Homo sapiens, UniProt P35869)
T1 sequence (P35869 11-848): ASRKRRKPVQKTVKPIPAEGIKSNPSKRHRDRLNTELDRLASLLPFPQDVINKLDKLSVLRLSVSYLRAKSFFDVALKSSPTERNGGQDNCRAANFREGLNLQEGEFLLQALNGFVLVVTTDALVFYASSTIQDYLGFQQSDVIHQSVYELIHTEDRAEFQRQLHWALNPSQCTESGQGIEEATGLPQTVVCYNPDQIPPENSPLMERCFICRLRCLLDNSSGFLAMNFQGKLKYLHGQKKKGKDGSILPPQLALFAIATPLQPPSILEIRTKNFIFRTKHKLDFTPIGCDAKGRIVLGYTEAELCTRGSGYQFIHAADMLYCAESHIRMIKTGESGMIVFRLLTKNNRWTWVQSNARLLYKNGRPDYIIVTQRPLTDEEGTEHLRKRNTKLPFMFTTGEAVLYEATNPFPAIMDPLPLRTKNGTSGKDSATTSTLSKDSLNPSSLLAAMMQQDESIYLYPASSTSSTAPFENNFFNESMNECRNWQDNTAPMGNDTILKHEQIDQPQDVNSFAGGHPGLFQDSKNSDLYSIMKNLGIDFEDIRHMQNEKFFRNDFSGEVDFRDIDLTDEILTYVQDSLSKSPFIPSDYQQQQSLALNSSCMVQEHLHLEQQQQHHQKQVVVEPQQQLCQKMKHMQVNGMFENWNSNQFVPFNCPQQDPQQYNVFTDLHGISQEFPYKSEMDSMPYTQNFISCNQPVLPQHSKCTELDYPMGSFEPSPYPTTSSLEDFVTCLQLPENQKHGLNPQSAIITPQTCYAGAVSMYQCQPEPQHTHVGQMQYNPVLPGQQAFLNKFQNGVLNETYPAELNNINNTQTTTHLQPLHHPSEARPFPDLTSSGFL
Experiment: AHR luciferase reporter activation ([…]) in THP-1, Caco-2 and EA.hy926 cells
Type: cell-based

SMILES: O=C1/C(=C2\Nc3ccccc3C2=O)Nc2ccccc21 [indigo]
- AHR luciferase reporter activation (1 uM) in THP-1, Caco-2 and EA.hy926 cells: AHR activation in THP-1 observed upon exposure to indigo, a known AHR agonist
